# Key:
# [1] = test system: aged rat ED model (老年性大鼠ED模型); assay: Test example 2: apomorphine-induced erection and electrically evoked erection in aged rats; format: in vivo, SD rat; details: alprostadil alone, intracavernosal, 14 days
# [2] = test system: vascular ED rabbit model (血管性ED家兔模型); assay: Test example 1: mating test in vascular ED rabbits; format: in vivo, New Zealand white rabbit; details: alprostadil alone, intracavernosal; for sexual activity parameters overall vs model group: once daily 1 week
# [3] = test system: neurogenic ED rat model (神经性ED大鼠模型); assay: Test example 3: mating behaviour in rats with cavernous nerve injury; format: in vivo, SD rat; details: alprostadil alone, intracavernosal, 14 days
# ED patient (ED) = assay: Clinical observation 1: ED patient, hypertension; format: in vivo, human; details: oral sildenafil 3 months, before the combination
# [4] = test system: patient with erectile dysfunction (勃起功能障碍); assay: Clinical observation 2: patient with erectile dysfunction and premature ejaculation; format: in vivo, human; details: oral sildenafil 3 months, before the combination
SMILES,sexual activity parameters overall vs model group ([1]; high dose 10μg/kg),"sexual activity parameters overall vs model group ([1]; low dose, printed 0.02μg/kg)",observed parameters vs control group ([2]; high dose 5μg/kg),sexual activity parameters overall vs model group ([2]; high dose 5μg/kg),sexual activity parameters overall vs model group ([2]; low dose 0.05μg/kg),sexual activity parameters overall vs model group ([3]; high dose 10μg/kg),sexual activity parameters overall vs model group ([3]; low dose 0.1μg/kg),attempted intercourse with sufficient sexual stimulation (ED patient (ED)),IIEF-5 score after sildenafil (ED patient (ED); baseline 4),intercourse satisfaction [4],overall satisfaction [4],IIEF-5 score after sildenafil ([4]; baseline 12)
"CCCCC[C@H](O)/C=C/[C@H]1[C@H](O)CC(=O)[C@@H]1CCCCCCC(=O)O [前列地尔, (1R,2R,3R)-3-羟基2-[(E)-(3S)-3-羟基-1-辛烯基]-5-氧代环戊烷庚酸]",总体优于模型组,总体优于模型组,趋向于对照组,总体优于模型组,总体优于模型组,总体优于模型组,总体优于模型组,–,–,–,–,–
CCCc1nn(C)c2c(=O)[nH]c(-c3cc(S(=O)(=O)N4CCN(C)CC4)ccc3OCC)nc12 [西地那非],–,–,–,–,–,–,–,尝试性交失败,5,未得到提高,略有下降,12

# Source: patent CN110693875A, “一种预防或治疗性功能障碍的药物组合物及其用途” (Chengdu Baiyu Pharmaceutical Co Ltd, priority 2018, dated 2020)
